According to patent publication US20240108580A1, “DECOQUINATE LIPOSOME, PREPARATION METHOD THEREFOR AND USE THEREOF” (CAS LAMVAC (GUANGZHOU) BIOMEDICAL TECHNOLOGY CO.,LTD., priority 2019, published 2024):
Like-named read-outs stand apart in the source and are kept apart here.

Experiments:
P. falciparum 3D7 = assay: In-vitro inhibition potency against Plasmodium falciparum, 72 hours, nucleic acid dye; format: cell-based
Protocol: (§1) The volume was filled up to 1 L with ultrapure water, the pH adjusted to 7.2, subjected to sterilized filtration by using a 0.22 μm filtration membrane, and stored at 4° C. to obtain a complete culture medium; the incomplete medium was composed of 10.43 g of 1640 dry powder (GIBCO, 31800022), 5.96 g of Hepes, 2 g of sodium bicarbonate, 0.292 g of L-glutamine, 3.96 g of glucose, […] of hypoxanthine and 2.5 mg of gentamicin, prepared by the same method as for the complete culture medium. • (2) Drugs and formulations: pure decoquinate was dissolved in DMSO as a stock solution, chloroquine was dissolved in PBS, and artemisinin was dissolved in DMSO and then diluted with PBS. […] Before the experiment, all the above dissolved drug solutions were then diluted to series of 10 gradient concentrations with the incomplete medium. • (3) Culture and assay method: Plasmodium falciparum was cultured in the complete culture medium, and human red blood cells (RBC) were preserved in the incomplete culture medium. […] The culture was incubated at 37° C. in 5% CO2 for 72 hours, then nucleic acid dye was added, and the […] measured in a microplate reader. The half-maximal inhibitory concentration (IC50) of drugs was calculated with Graph Pad software, that is, the concentration when the inhibition rate of antimalarial drugs to P. falciparum reached 50% was calculated.

P. falciparum Dd2 = assay: as above; format: cell-based
Protocol: as §1

[1] = cited from earlier work
[2] = 3D7, chloroquine-sensitive strain, liposome values are decoquinate concentrations, read-out: IC50 P. falciparum 3d7 Mean ± S.D.
[3] = DD2, multidrug-resistant (including chloroquine) strain, liposome values are decoquinate concentrations, read-out: IC50 P. falciparum Dd2 Mean ± S.D.

Row | IC50 (P. falciparum 3D7; [2]) [nM] | IC50 (P. falciparum Dd2; [3]) [nM] | Structure (SMILES) | IC50 (P. falciparum 3D7; 3D7, read-out: IC50 P. falciparum 3d7 Mean ± S.D.) [nM] | IC50 (P. falciparum Dd2; DD2, read-out: IC50 P. falciparum Dd2 Mean ± S.D.) [nM] | Solubility in ethanol ([1]; ethanol) | Solubility in water ([1]; water)
1 | 16.4 ± 5.8 | 18.5 ± 0.5 | C[C@@H]1CC[C@H]2[C@@H](C)C(=O)O[C@@H]3O[C@@]4(C)CC[C@@H]1[C@]32OO4 [Artemisinin, artemisinin] | – | – | – | –
2 | – | – | CCN(CC)CCCC(C)Nc1ccnc2cc(Cl)ccc12 (centres unmarked) [Chloroquine, chloroquine] | 23.75 ± 0.06 | 185 ± 16.2 | – | –
3 | 1.63 ± 0.13 | 1.57 ± 0.49 | CCCCCCCCCCOc1cc2c(O)c(C(=O)OCC)cnc2cc1OCC [Pure DQ, ethyl 6-decyloxy-7-ethoxy-4-hydroxyquinoline-3-carboxylate] | – | – | slightly soluble | practically insoluble
